{
  "source": "paper PMC6161288",
  "about": "“Bioavailability of Eurycomanone in Its Pure Form and in a Standardised Eurycoma longifolia Water Extract” (Pharmaceutics, 2018)",
  "key": {"Aqueous solubility": {"assay": "Aqueous solubility", "format": "physicochemical", "conditions": "aqueous buffer, kinetic from dmso stock, room temperature, 2% DMSO", "protocol": "The aqueous […] was estimated by adding 10 µL of eurycomanone stock solution (10 mM) to 490 µL of aqueous buffer at pH 5.4, pH 7.4 and DMSO in triplicates in deep-well plates. […] The plate was kept on a shaker (300 rpm) at room temperature for 16 h. The plate was then centrifuged at 25 °C, 4000 rpm for 25 min. The supernatant was transferred and analysed using LC-MS/MS.\nPeak area 1 = peak area of the compound in 2% DMSO at the different pH levels.\nPeak area 2 = peak area of the compound in 100% DMSO."}, "[1]": {"assay": "Chemical stability in simulated gastrointestinal fluids", "format": "physicochemical", "conditions": "GSF (pH 2), FESSIF (pH 5.0), FASSIF (pH 6.5)", "protocol": "The chemical stability of eurycomanone was estimated in gastric simulated fluid (GSF), pH 2; fasted simulated intestinal fluid (FASSIF), pH 6.5; fed simulated intestinal fluid (FESSIF), pH 5.0; and in 150 mM NaHCO3 at pH 9.2. Eurycomanone (3 µL) at 5 mM was added to 297 µL of the respective buffers. The mixture (100 µL) was added to 100 µL of ACN at time points 1 and 3 h and sent for LC-MS/MS analysis."}, "Plasma stability, dog": {"assay": "Plasma stability, dog", "format": "in vitro ADME", "conditions": "5 µM, 37 °C, up to 4 h", "protocol": "The plasma stability was estimated by preparing 5 µM of eurycomanone in 600 µL plasma in triplicates. The plasma stability of eurycomanone was determined in five types of plasma (mice, rat, dog, monkey, and human). The reaction was kept at 37 °C and ACN (100 µL) was added at timepoints 0, 30 min, and 1, 2, and 4 h to the reaction mixture (100 µL). The supernatant (10,000 rpm, 10 min, 4 °C) was collected and analysed by LC-MS/MS. The standards (propantheline bromide and enalapril) were analysed in triplicates."}, "[2]": {"assay": "Plasma protein binding (rapid equilibrium dialysis), monkey", "format": "in vitro ADME", "conditions": "pH 7.4, 37 °C, read-out: percentage bound to plasma protein (converted)", "protocol": "(§1) The ability of eurycomanone to bind plasma protein was analysed in five types of plasma (mice, rat, dog, monkey, and human). Each type of plasma was spiked with eurycomanone (1 mM) to make the 10 µM test concentration of eurycomanone in the plasma. Equilibrium dialysis buffer (500 µL) at pH 7.4 was added to the right chamber in rapid equilibrium dialysis (RED), while the spiked plasma (300 µL) was added to the left chamber. The Teflon base plate was covered with aluminium foil and left on the shaking incubator at 37 °C for 4 h. The matrix was balanced by mixing 100 µL of the equilibrium buffer with the spiked plasma from the left chamber in RED before adding the stop solution (350 µL) to precipitate out the protein. The supernatant (10,000 rpm, 10 min, 4 °C) was collected and analysed using LC-MS/MS. The standards (propranolol, warfarin, and acebutalol) were analysed in duplicates."}, "[3]": {"assay": "Plasma protein binding (rapid equilibrium dialysis), mice", "format": "in vitro ADME", "conditions": "mouse, pH 7.4, 37 °C, read-out: percentage bound to plasma protein (converted)", "protocol": "as §1"}, "[4]": {"assay": "Plasma protein binding (rapid equilibrium dialysis), human", "format": "in vitro ADME", "conditions": "pH 7.4; human plasma, 10 µM, 37 °C, 4 h; read-out: percentage bound to plasma protein (converted)", "protocol": "as §1"}, "plasma protein": {"test_system": "plasma protein", "assay": "Plasma protein binding (rapid equilibrium dialysis), human", "format": "in vitro ADME", "conditions": "range over all species' plasma apart from dog (rat, monkey, mice, human)", "protocol": "as §1"}},
  "data": [
    {"smiles": "C=C1[C@@H](O)[C@]2(O)OC[C@]34[C@H]2[C@@]2(C)[C@H](O)C(=O)C=C(C)[C@@H]2C[C@H]3OC(=O)[C@H](O)[C@@]14O", "note": "[Eurycomanone]", "values": [
      {"measurement": "solubility at 16 h", "setting": "Aqueous solubility; pH 5.4, 16 h", "result": 206, "unit": "µM"},
      {"measurement": "solubility at 16 h", "setting": "Aqueous solubility; pH 7.4, 16 h", "result": 205, "unit": "µM"},
      {"measurement": "chemical stability (percentage remaining after 3 h of incubation)", "setting": "[1]", "result": "high stability"},
      {"measurement": "chemical stability (percentage remaining after 3 h of incubation)", "setting": "[1]; listed as eurycomanone", "result": "chemically stable across all pH values tested"},
      {"measurement": "plasma stability", "setting": "Plasma stability, dog", "result": "highly stable"},
      {"measurement": "fraction unbound at 4 h, 10 µM", "setting": "[2]", "result": 0.646},
      {"measurement": "fraction unbound at 4 h, 10 µM", "setting": "[3]", "result": 0.784},
      {"measurement": "fraction unbound at 4 h, 10 µM", "setting": "[4]", "result": 0.611},
      {"measurement": "fraction of unbound eurycomanone", "setting": "plasma protein", "result": "61.1–78.4%"}
    ]}
  ]
}
